{"source": "patent US9597416B2", "about": "“Fluorescent membrane intercalating probes and methods for their use” (PHANOS TECHNOLOGIES, INC., priority 2005, dated 2017)", "key": {"[1]": {"assay": "Absorbance/emission spectra in ethanol", "format": "physicochemical", "conditions": "for Abs Max / Flourescence Ex Max / Fluorescence Em Max: 0.25 μM solutions in ethanol; for Extinction Coefficient: ethanol, approximate, maximum absorbance divided by nominal concentration", "method": "Referring now to Tables 1 and 2, there are shown the absorbance and emission maxima of some example compounds of the present invention. Absorption and Fluorescence spectra were run using 0.25 μM solutions in ethanol on a Jasco, Inc. UV-530 UV/VIS spectrophotometer and FP 750 spectrofluorometer, respectively. Approximate extinction coefficients were estimated from the absorbance scans by dividing the maximum absorbance by the nominal concentration ([…])."}, "U937 cells": {"system": "U937 cells", "assay": "Probe effects on cell viability and cell growth (Maximum Tolerated Concentration)", "format": "cell-based", "conditions": "for Maximum Tolerated Concentration (MTC): cultured U937 cells, 10^7 cells/ml, labeled 5 min in Diluent C, cultured 22-24 hours", "method": "U937 cells were stained at a concentration of 10^7 cells/ml with increasing concentrations of probe by rapidly admixing 2× cells suspended in Diluent C with 2× probe in Diluent C. After 5 minutes at room temperature, the staining was stopped by the addition of cell culture medium. Cells were then washed thoroughly and cultured under standard conditions for 22-24 hours. Cell numbers were compared to those in a control culture treated with diluent alone.\nCells labeled with both dyes were also monitored daily for changes in mean fluorescence intensity (MFI), using a FACSAria flow cytometer with 488 nm excitation for PKH26 and 405 nm excitation for F305B. […] However, initial MFI's were high enough to detect at least 4 and possibly 5 or 6 cell doublings before the fluorescence intensity distribution of labeled cells began to overlap substantially with that of unstained cells. Color overlap of F305B into filter windows used for detection of 488 nm or 633 nm excited dyes was minimal. Since 405 nm excited dyes are less commonly available than 488 nm and 633 nm excited dyes of this nature were therefore deemed useful, despite their somewhat lesser signal:noise ratio, for providing increased flexibility in choice of spectral window to be used for monitoring membrane labeled cells and their proliferation.\nCells labeled with both dyes were also monitored daily for changes in mean fluorescence intensity (MFI), using a FACSCalibur flow cytometer with 488 nm excitation for PKH26 and 633 nm excitation for F308B.\nCells labeled either with PKH26 or with F319B were also monitored daily for changes in mean fluorescence intensity (MFI), using a FACSAria flow cytometer with 488 nm excitation for PKH26 and 785 nm excitation for F319B. […] Although the cells could only be followed for 4-5 doublings when labeled with PKH26, at least 6 doublings could be monitored using F319B before the fluorescence intensity distribution of labeled cells began to overlap substantially with that of unstained cells. Color overlap of F319B was minimal in filter windows used for detection of fluorescein, phycoerthyrin (PE), allophycocyanin (APC), and PE-Texas Red, PE-Cy5 or PerCP-Cy5.5 tandem conjugate dyes."}, "[2]": {"assay": "Solubility in Diluent C vs ethanol control", "format": "physicochemical", "conditions": "1:50 dilution of 1 mM stock, 30 min room temperature, centrifuged, % of absorbance of 100% ethanol control", "method": "Effects of the various combinations of asymmetrical and symmetrical side chains and methine bridges on the solubility of the compounds of the present invention were examined. Solubility in a commercially available probe diluent. Diluent C, was also tested. Triplicate 1:50 dilutions of stock 1 mM probe solutions were made in either ethanol or test diluent. After 30 minutes at room temperature solutions were centrifuged at 10,000×g for 10 minutes to remove any microagregates and 100 ul aliquots were transferred to 2.0 ml of ethanol for absorbance determinations. Based on the teachings of Leung et al. and on solubility specifications found on Sigma Certificates of Analysis for the commercial diluent (diluent supernatant absorbance at 30 minutes at least 60% of ethanol supernatant absorbance after 30 minutes), a preliminary specification at least 60% of the ethanol control was set as a surrogate for solubility sufficient to achieve cell labeling with S/N ratios greater than 100 and to minimize potential problems with brightness or reproducibility of labeling. Certain example compounds were soluble after 30 minutes in Diluent C.\nDiluent C is a commercially available isotonic salt-free vehicle (Sigma-Aldrich Chemical Company) that is commonly used."}, "[3]": {"conditions": "U937 cells stained at each dye's MTC, monitored daily for 4 days (approximately 4 doublings)"}}}
{"smiles": "CCCCCCCCCCCCCCCCCCN1/C(=C\\C=C\\c2oc3ccc(C(C)(C)C)cc3[n+]2CCCCCCCCCCCCCCCCCC)Oc2ccc(C(C)(C)C)cc21.[I-]", "note": "[Compound F306B]", "values": [{"measurement": "Abs Max", "setting": "[1]", "value": 492, "unit": "nm"}, {"measurement": "Flourescence Ex Max", "setting": "[1]", "value": 493, "unit": "nm"}, {"measurement": "Fluorescence Em Max", "setting": "[1]", "value": 508, "unit": "nm"}, {"measurement": "Extinction Coefficient", "setting": "[1]", "value": "135,000 M^−1cm^−1"}]}
{"smiles": "CCCCCCCCCCCCCCCCCCCCCC[N+]1=C(/C=C/C=C/C=C/C=C2/N(CCCCCCCCCCCCCC)c3ccc([N+](=O)[O-])cc3C2(C)C)C(C)(C)c2ccccc21.[I-]", "note": "[Compound F319B]", "values": [{"measurement": "Abs Max", "setting": "[1]", "value": 743, "unit": "nm"}, {"measurement": "Fluorescence Em Max", "setting": "[1]", "value": 776, "unit": "nm"}, {"measurement": "Extinction Coefficient", "setting": "[1]", "value": "112,500 M^−1cm^−1"}, {"measurement": "cell growth compared with PKH26-stained cells", "setting": "U937 cells; U937 cells, F319B 12.5 micromol/L vs PKH26 12 micromol/L, monitored daily for 6 days", "value": "comparable growth"}, {"measurement": "Maximum Tolerated Concentration (MTC)", "setting": "U937 cells", "value": 20, "unit": "µmol/L"}]}
{"smiles": "CCCCCCCCCCCCCCCCN1/C(=C\\C=C\\c2oc3ccc(C(C)(C)C)cc3[n+]2CCCCCCCCCCCCCCCC)Oc2ccc(C(C)(C)C)cc21.[I-]", "note": "[Compound F304B]", "values": [{"measurement": "Abs Max", "setting": "[1]", "value": 493, "unit": "nm"}, {"measurement": "Flourescence Ex Max", "setting": "[1]", "value": 494, "unit": "nm"}, {"measurement": "Fluorescence Em Max", "setting": "[1]", "value": 508, "unit": "nm"}, {"measurement": "Extinction Coefficient", "setting": "[1]", "value": "160,000 M^−1cm^−1"}]}
{"smiles": "CCCCCCCCCCCCCCCCCCCCCC[n+]1c(/C=C2\\Sc3ccccc3N2CCCCCCCCCCCCCC)sc2ccccc21.[I-]", "note": "[Compound F305B]", "values": [{"measurement": "Abs Max", "setting": "[1]", "value": 425, "unit": "nm"}, {"measurement": "Flourescence Ex Max", "setting": "[1]", "value": 420, "unit": "nm"}, {"measurement": "Fluorescence Em Max", "setting": "[1]", "value": 461, "unit": "nm"}, {"measurement": "Extinction Coefficient", "setting": "[1]", "value": "81,200 M^−1cm^−1"}, {"measurement": "cell growth compared with PKH26-stained cells", "setting": "U937 cells; [3]", "value": "comparable growth"}, {"measurement": "Maximum Tolerated Concentration (MTC)", "setting": "U937 cells", "value": 20, "unit": "µmol/L"}]}
{"smiles": "CCCCCCCCCCCCCCCCCCCCCC[N+]1=C(/C=C/C=C/C=C/C=C2/N(CCCCCCCCCCCCCC)c3ccc4ccccc4c3C2(C)C)C(C)(C)c2c1ccc1ccccc21.[I-]", "note": "[Compound F277A]", "values": [{"measurement": "Abs Max", "setting": "[1]", "value": 788, "unit": "nm"}, {"measurement": "Flourescence Ex Max", "setting": "[1]", "value": 790, "unit": "nm"}, {"measurement": "Fluorescence Em Max", "setting": "[1]", "value": 814, "unit": "nm"}, {"measurement": "Extinction Coefficient", "setting": "[1]", "value": "205,400 M^−1cm^−1"}, {"measurement": "Solubility >60% of EtOH Control @ 30 min", "setting": "[2]", "value": 95, "unit": "%"}]}
{"smiles": "CCCCCCCCCCCCCCCCCCCCCC[N+]1=C(/C=C/C=C/C=C2/N(CCCCCCCCCCCCCC)c3ccc([N+](=O)[O-])cc3C2(C)C)C(C)(C)c2ccccc21.[I-]", "note": "[Compound F308B]", "values": [{"measurement": "Abs Max", "setting": "[1]", "value": 649, "unit": "nm"}, {"measurement": "Flourescence Ex Max", "setting": "[1]", "value": 493, "unit": "nm"}, {"measurement": "Fluorescence Em Max", "setting": "[1]", "value": 671, "unit": "nm"}, {"measurement": "Extinction Coefficient", "setting": "[1]", "value": "134,610 M^−1cm^−1"}, {"measurement": "cell growth compared with PKH26-stained cells", "setting": "U937 cells; [3]", "value": "comparable growth"}, {"measurement": "Maximum Tolerated Concentration (MTC)", "setting": "U937 cells", "value": 15, "unit": "µmol/L"}]}
